From US20240228487A1, “FUSED HETEROCYCLIC COMPOUND AND APPLICATION THEREOF, PHARMACEUTICAL COMPOSITIONS CONTAINING SAME AND APPLICATION THEREOF” (ZHEJIANG UNIVERSITY, priority 2021, published 2024) come the findings set out here.

Assay [1] deals with T1, human TRPM2 channels (Homo sapiens, UniProt O94759).
T1 construct: expressed in transfected cells
Description: whole cell patch clamp, inhibition of TRPM2 channel current. Particulars: HEK293 cells stably expressing human TRPM2, 500 μM ADPR. Type of assay: cell-based. The procedure: The fused heterocyclic compound of the present invention has an inhibitory effect on the TRPM2 channel, and its pharmacological activity is measured using whole cell patch clamp technology, the corresponding steps are as follows: Incubating HEK293 cells stably expressing human TRPM2 channels in DMEM/F-12 medium containing 10% bovine serum, 50 units/mL of penicillin and […] of streptomycin under the condition of 5% CO2 and 37° C. The cells before testing are stored in the extracellular fluid (147 mM NaCl, 2 mM KCl, 1 mM MgCl2, 2 mM CaCl2, 10 mM HEPES, 13 mM glucose, pH 7.4). The electrode is filled with the electrode internal solution (147 mM NaCl, 0.05 mM EGTA, 1 mM MgCl2, 10 mM HEPES, 0.5 mM ADPR, pH=7.3), and the resistance is maintained at 3-5 M Ω. Administering ADPR into cells through electrodes, and detecting the ADPR concentration used to activate TRPM2 as 500 μM, when detecting a stable current, perfusing the corresponding concentration of fused heterocyclic compound II-1 into the extracellular fluid for at least 60 seconds. record the change in current magnitude using voltage ramp mode, changing the voltage from −100 mV to+100 mV within 500 ms, with a normal clamp voltage of 0 mV and a TRPM every 5 seconds; finally, replacing the extracellular fluid with a solution with pH=5.0 to block the TRPM2 current, the electrophysiological current test results obtained are shown in Table 1, and the electrophysiological current graph obtained is shown in FIG. 1. Similarly, administering corresponding concentrations of other fused heterocyclic compounds (II-2˜II-54, III-1˜III-11) into the extracellular fluid, taking electrophysiological tests using the same method, the results are shown in Table 1. The electrophysiological representative current graphs of some fused heterocyclic compounds (II-9, II-19, and II-36) inhibiting TRPM2 channel current are shown in FIG. 1.

In assay [2] the test system is C57BL/6 mice, transient middle cerebral artery occlusion (tMCAO). Description: mouse tMCAO ischemia/reperfusion injury model (Embodiment 68). The assay is classed as in vivo. The note with it: 3 mg/kg tail vein injection 3 h after reperfusion. Here is the method:
After isoflurane inhalation gas anesthesia of 22-25 g male C57BL/6 mice, the fiber-optic probes of the laser Doppler flowmeter were fixed to the animal's skull with glue for monitoring the cerebral blood flow of the middle cerebral artery (MCA) supplying cortex. […] Only animals whose blood flow values decreased to 20% of the basic value were selected according to the blood flow data monitored by the flowmeter. […]
The mice were decapitated 24 h after ischemia-reperfusion, the coronal planes of the brains were cut into brain slices of about 2 mm thickness uniformly, the brain slices were placed in 0.25% 2,3,5-triphenyltetrazolium chloride (TTC) solution, incubated at 37° C. […] The processed brain slices were photographed using a macro camera, and Image J image analysis software was used to calculate and count the cerebral infarct volume, and the measured results are shown in FIG. 4. […]

Assay [3] shares this test system. As to the kind of experiment: mouse tMCAO cerebral stroke model (Embodiment 69). The assay is classed as in vivo. Particulars: 3 mg/kg tail vein injection 3 h after reperfusion; for area of cerebral infarction caused by tMCAO: TTC staining 24 h after ischemia-reperfusion; for neuromotor dysfunction scores caused by tMCAO: scored 24 h after ischemia-reperfusion. The source says:
After isoflurane inhalation gas anesthesia of 22-25 g male C57BL/6 mice, the fiber-optic probes of a laser Doppler flowmeter were fixed to the skull of the mice with glue for monitoring the cerebral blood flow of the middle cerebral artery (MCA) supplying cortex. The mice were fixed in the supine position, and the middle of the neck was dehaired and routinely sterilized with 75% alcohol. An approximately 1.5 cm incision was made in the middle of the neck, and the skin of the neck was incised, and the muscle and fascia were separated along the inner edge of the sternocleidomastoideole; the right carotid artery sheath was bluntly separated to expose the right common carotid artery (CCA), external carotid artery (ECA), and internal carotid artery (ICA); after the surgical area was exposed satisfactorily, the CCA and ICA were temporarily clipped with arterial clips, and a small incision was made at the proximal end of the ECA with microsurgical scissors, and a nylon monofilament suture was inserted from the small incision along the ECA, and gently pushed into the intracranial area in the direction of the ICA for about 11.5±0.5 mm, blocking the beginning of the middle cerebral artery. Only the animals whose blood flow values decreased to 20% of the basic value were selected according to the blood flow data monitored by the flowmeter. After 90 minutes of ischemia, the monofilament sutures were gently withdrawn out, the arterial stumps were tied tightly, the surgical wounds were inspected, the bleeding was thoroughly stopped, a small amount of penicillin powder was sprinkled locally to prevent infection, and the subcutaneous tissues and the skin were sutured layer by layer, thus completing the ischemia reperfusion injury model. A heating plate was used to maintain the body temperature of the animals during surgery. After completion of the surgery, the sutured mice were placed in a heat preservation and humidification box until the mice recovered activities. Animals in the sham-operated group were subjected to the same surgical procedure but without middle artery occlusion.
Clean-grade male C57BL/6 mice were randomly divided into five groups, namely, the sham-operated group, the group of the positive control drug Edaravone(3 mg/kg), and the 3 mg/kg dose group of compounds II-1, II-23 and III-1.
The mice were subjected to tail vein injections of Edaravone, II-1, II-23, and III-1 respectively 3 h after modeling and reperfusion; the sham-operated group was injected with an equal volume of saline, and II-1, II-23, III-1, and Edaravone were dissolved in 0.9% saline solution. Neurological function scores and TTC staining of mice were performed 24 h after ischemia-reperfusion, and the results are shown in FIGS. 6, 7 and 8.
The mice were decapitated 24 h after ischemia-reperfusion, the coronal planes of the brains were cut into brain slices of about 2 mm thickness uniformly. The brain slices were placed in 0.25% 2,3,5-triphenyltetrazolium chloride (TTC) solution, incubated at 37° C. Celsius for 30 minutes away from light, stained, and fixed in 4% paraformaldehyde neutral buffer (pH 7.4) overnight. The processed brain slices were photographed using a macro camera, and Image J image analysis software was used to calculate and count the cerebral infarct volume, and the measured results are shown in FIG. 7. The formula for calculating the percentage of infarct volume was (sum of the left uninfarcted area −sum of the right uninfarcted area)/sum of the left uninfarcted area×100%.
According to the five-level, four-point standard of score, the mortality and neuromotor dysfunction scores of each group of mice were performed, and the results are shown in FIG. 8. […]

Assay [4] relates to dopaminergic neurons differentiated from iPSC derived from disseminated PD patients. As to the kind of experiment: cell viability (cell titer glo) of iPSC differentiated dopaminergic neurons. The assay is classed as cell-based, human. The note with it: II-23 0.6 μM, ACA 0.5 μM, from day 15 of culture; CTG kit. Here is the method: Using normal and disseminated PD patient-derived induced pluripotent stem cells (iPSC), performing drug interventions using the TRPM2 inhibitors ACA and II-23 after they were induced and differentiated into mature dopaminergic neurons, the drug treating method is as follows: • a. Calculating the materials for the experiment, and starting preparing when the dopaminergic neurons are differentiated to the 8th day. The petri dishes should be treated with 33 μg/mL PDL overnight and washed with sterilized water. After drying, 2 μg/mL of laminin was added and incubated overnight. Both PDL and laminin can be recycled for reuse. • b. Digesting and collecting the differentiated cells with Accutase, and counting with a cell counting plate, and then diluting to 500,000/mL with maturation medium (Y-27632 should be added). Fluorescence confocal imaging was performed using a confocal dish inoculated with 2 mL/dish, and cell viability assays were performed using a 96-well plate inoculated with 100 μL/well. Taking this time point as the 10th day, changing to Y-27632-free medium on the 11th day, and changing the medium every two days. • c. When the cells were cultured to the 15th day, treating the drugs to a final concentration with the medium, the working concentration of ACA is 0.5 μM, and the working concentration of II-23 is 0.6 μM, and the drug-containing medium was changed every four days. […]
Background: ATP-based viability assays read luminescence as a measure of living cells.

For assay [5] the test system is unchanged. Description: mitochondrial fusion morphology (Mitotracker, Girk2 labeling) of iPSC differentiated dopaminergic neurons. The assay is classed as cell-based, human. Particulars: II-23 0.6 μM, ACA 0.5 μM; Mitotracker staining, Girk2-positive neurons. Here is the method:
Using normal and disseminated PD patient-derived induced pluripotent stem cells (iPSC), performing drug interventions using the TRPM2 inhibitors ACA and II-23 after they were induced and differentiated into mature dopaminergic neurons, the drug treating method is as follows: • a. Calculating the materials for the experiment, and starting preparing when the dopaminergic neurons are differentiated to the 8th day. The petri dishes should be treated with 33 μg/mL PDL overnight and washed with sterilized water. After drying, 2 μg/mL of laminin was added and incubated overnight. Both PDL and laminin can be recycled for reuse. • b. […] Fluorescence confocal imaging was performed using a confocal dish inoculated with 2 mL/dish, and cell viability assays were performed using a 96-well plate inoculated with 100 μL/well. […]
Positive dopamine neurons were labeled with a dopaminergic neuron marker molecule Girk2 antibody susceptible for SNc, and cellular mitochondria were labeled with the mitochondrial dye mitotracker as in FIG. 15. […] Finally, performing the fluorescence imaging: removing the secondary antibody, and washing three times with 1×PBS, adding 50% Glycerol for fluorescence protection, and then imaging with a Zeiss LSM880 laser confocal microscope, as shown in FIG. 15.

T1 sequence (O94759 whole entry): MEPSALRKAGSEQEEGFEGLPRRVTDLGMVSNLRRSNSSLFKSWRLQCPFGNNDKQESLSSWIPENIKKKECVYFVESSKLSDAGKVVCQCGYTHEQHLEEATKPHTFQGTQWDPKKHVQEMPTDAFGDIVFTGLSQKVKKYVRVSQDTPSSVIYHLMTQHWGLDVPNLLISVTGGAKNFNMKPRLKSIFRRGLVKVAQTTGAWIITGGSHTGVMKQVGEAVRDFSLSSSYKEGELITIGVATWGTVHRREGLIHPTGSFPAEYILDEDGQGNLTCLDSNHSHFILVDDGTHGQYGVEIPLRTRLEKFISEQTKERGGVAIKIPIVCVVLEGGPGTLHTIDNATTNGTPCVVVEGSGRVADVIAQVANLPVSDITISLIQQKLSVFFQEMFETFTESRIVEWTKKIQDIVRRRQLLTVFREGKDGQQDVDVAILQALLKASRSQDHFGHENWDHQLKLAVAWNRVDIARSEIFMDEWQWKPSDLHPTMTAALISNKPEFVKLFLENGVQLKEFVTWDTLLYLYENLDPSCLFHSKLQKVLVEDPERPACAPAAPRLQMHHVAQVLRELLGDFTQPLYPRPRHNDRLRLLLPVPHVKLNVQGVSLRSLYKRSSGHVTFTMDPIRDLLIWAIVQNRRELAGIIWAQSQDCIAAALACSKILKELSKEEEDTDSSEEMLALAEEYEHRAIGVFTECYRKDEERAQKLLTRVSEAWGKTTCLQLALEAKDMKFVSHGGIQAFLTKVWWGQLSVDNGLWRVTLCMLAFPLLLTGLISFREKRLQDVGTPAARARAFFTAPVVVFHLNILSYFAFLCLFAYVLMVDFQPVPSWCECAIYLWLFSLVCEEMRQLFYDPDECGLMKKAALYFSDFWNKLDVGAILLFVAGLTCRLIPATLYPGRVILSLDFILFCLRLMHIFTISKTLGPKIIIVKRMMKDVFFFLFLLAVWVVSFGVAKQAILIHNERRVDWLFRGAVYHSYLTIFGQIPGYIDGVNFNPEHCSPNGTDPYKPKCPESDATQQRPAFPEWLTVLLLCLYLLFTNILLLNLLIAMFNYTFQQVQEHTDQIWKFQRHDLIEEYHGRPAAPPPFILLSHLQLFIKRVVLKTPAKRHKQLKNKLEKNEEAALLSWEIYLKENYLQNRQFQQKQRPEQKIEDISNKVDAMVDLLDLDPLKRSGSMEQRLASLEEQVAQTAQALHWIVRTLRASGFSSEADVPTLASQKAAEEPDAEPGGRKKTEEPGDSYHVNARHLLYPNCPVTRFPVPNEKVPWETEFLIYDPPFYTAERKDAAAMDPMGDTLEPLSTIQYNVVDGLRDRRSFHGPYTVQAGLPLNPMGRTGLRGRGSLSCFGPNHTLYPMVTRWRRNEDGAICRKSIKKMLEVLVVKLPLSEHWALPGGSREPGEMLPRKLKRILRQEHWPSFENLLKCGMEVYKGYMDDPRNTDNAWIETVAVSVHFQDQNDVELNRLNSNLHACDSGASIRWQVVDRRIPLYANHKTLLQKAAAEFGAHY

Take `CCOC(=O)c1cc(C(=O)c2ccccc2)n2cccc2c1` [II-1, 5-benzoimide 7-carboxylic acid ethyl ester]: the IC50 in assay [1] fell in the range of 1 to 10 µM. Moreover, in assay [2] (TTC staining 24 h after ischemia-reperfusion), the “volume of cerebral infarction caused by tMCAO” value was “significantly reduce”. Also, the “scores of neuromotor dysfunction caused by tMCAO” value in assay [2] (scored 24 h after ischemia-reperfusion) was “significantly reduce”. In assay [3], the “area of cerebral infarction caused by tMCAO” value is “significantly reduced” and the “neuromotor dysfunction scores caused by tMCAO” value is “significantly reduced”.
On to `COC(=O)c1cc(C(=O)c2ccccc2)n2ccnc2c1` [III-1, 5-benzimidazolo[1,2-a]pyridine-7-methyl carboxylate], for which, in assay [1], the IC50 fell in the range of 1 to 10 µM. For the same compound, in assay [3], the “area of cerebral infarction caused by tMCAO” value is reported as “significantly reduced” and the “neuromotor dysfunction scores caused by tMCAO” value is given as “significantly reduced”.
On to `CCCCCc1ccc(/C=C/C(=O)Nc2ccccc2C(=O)O)cc1` [ACA, reference compound], for which the “cell viability of differentiated dopaminergic neurons derived from disseminated PD patients” value in assay [4] was “restored”. For the same compound, the “excessive mitochondrial fusion in dopaminergic neurons derived from PD patients” value in assay [5] is recorded as “reversed”.

Usually IC50 stands for the concentration that inhibits the measured activity by half. A low value points to inhibition by little substance.
